These results are taken from ChEMBL document CHEMBL1136749, “Central neural tumor destruction by controlled release of a synthetic glycoside dispersed in a biodegradable polymeric matrix” (J Med Chem, 2003).

For this assay, the system named is U373 MG. Description: Antimitotic activity against human glioma line U-373 cell by measuring the incorporation of [3H]thymidine in cultures of the cells. Format: functional, cell-based, U-373MG ATCC.

pIC50: −log10 of the molar value.

In turn, `CCCCCCCCO[C@H]1O[C@@H](COCC(CO)(CO)CO)[C@@H](O)[C@H](O)[C@@H]1NC(C)=O` gave a pIC50 of 4.37.

As usually defined, the pIC50 is −log10 of the IC50, conventionally taken in molar units. A low value points to a large IC50.
